Test [1] addresses T1, human 5-HT1D receptor (Homo sapiens, UniProt P28221).
T1 construct: host or cells: HEK293T
In words: cAMP accumulation (LANCE Ultra TR-FRET) in HEK293T cells, WT 5-HT1D. The class given is cell-based. Conditions: for 5-HT1D EMAX (%): WT receptor; for 5-HT1D EMAX (%) / Emax: normalized to basal (0%) and 10 μM 5-CT (100%); for EC50: 5-HT1D pEC50, WT receptor, cAMP accumulation, HEKt cells, mean ± SD; for Emax: HEK-293T, read-out: 5-HT1D EMAX (%), WT receptor. On the procedure:
(§1) Briefly, cells transfected with the desired receptor construct and compounds were incubated in the dark for 90 min at 37 °C. After incubation, cAMP detection reagents were added, and TR-FRET was used to quantify the cAMP produced.
(§2) The functional activity of compounds was determined by stimulating cells expressing the desired receptor with FSK and test compound in parallel with 12 known concentrations of cAMP. The known concentrations of cAMP were used to create a standard curve for each experiment that was used to interpolate the unknown values of cAMP in wells with test compounds. […] The EC50 and EMAX values were determined using the “dose response – log[agonist] vs response (three parameter)” nonlinear regression model in Prism and transformed to pEC50 values, reported as mean ± SD.
(§3) Summary of functional assay conditions at various 5-HT1 receptor point mutation constructs.

A further test addresses S5.42A 5-HT1B receptor (Homo sapiens, UniProt P28222, S212A). In words: cAMP accumulation in HEK293T cells, S5.42A 5-HT1B. It counts as cell-based. Conditions: point-mutated receptor, 3 independent experiments. More on the design: host or cells: HEK293T. Here is the method:
as §1, §2
Cell Type Receptor Cell Density [Forskolin] Incubation time
as §3
On the technique in general: cAMP levels reflect the balance of adenylyl cyclase and phosphodiesterase activity.

Test [2] deals with T2, human 5-HT1B receptor (Homo sapiens, UniProt P28222).
T2 construct: host or cells: HEK293T
Description: cAMP accumulation (LANCE Ultra TR-FRET) in HEK293T cells, WT 5-HT1B. It counts as cell-based. The conditions noted are these: for 5-HT1B EMAX (%) / Emax: normalized to basal (0%) and 10 μM 5-CT (100%); for EC50: 5-HT1B pEC50, WT receptor; for Emax: HEK-293T, read-out: 5-HT1B EMAX (%), WT receptor. On the procedure:
as §1, §2, §3

The target in test [3] is T3, human 5-HT1A receptor (Homo sapiens, UniProt P08908).
T3 construct: host or cells: HEK293T
T3 sequence (P08908 1-422): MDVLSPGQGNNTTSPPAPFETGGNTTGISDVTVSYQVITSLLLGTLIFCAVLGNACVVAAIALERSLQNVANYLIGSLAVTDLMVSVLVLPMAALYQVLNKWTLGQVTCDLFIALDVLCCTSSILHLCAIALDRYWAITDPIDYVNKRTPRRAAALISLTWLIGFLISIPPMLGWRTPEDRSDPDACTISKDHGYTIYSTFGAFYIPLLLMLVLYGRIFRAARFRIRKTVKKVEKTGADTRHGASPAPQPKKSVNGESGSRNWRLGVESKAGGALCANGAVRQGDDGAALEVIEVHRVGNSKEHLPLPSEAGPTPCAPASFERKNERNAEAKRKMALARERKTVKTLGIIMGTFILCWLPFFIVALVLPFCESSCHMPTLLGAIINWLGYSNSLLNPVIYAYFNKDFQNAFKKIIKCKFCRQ
In words: Radioligand binding (saturation and competition), WT 5-HT1A. Conditions: WT receptor, [^3H]5-CT competition, mean ± SD; for Ki: Affinity (pKi ± SD) 5-HT1A.

Test [4] concerns the target T3, human 5-HT1A receptor. In words: cAMP accumulation (LANCE Ultra TR-FRET) in HEK293T cells, WT 5-HT1A. The conditions noted are these: for EC50: 5-HT1A pEC50, WT receptor, cAMP accumulation, HEKt cells, mean ± SD; for Emax: HEK-293T, read-out: 5-HT1A EMAX (%), WT receptor; for Emax / 5-HT1A EMAX (%): normalized to basal (0%) and 10 μM 5-CT (100%); for 5-HT1A EMAX (%): WT receptor. The class given is cell-based. Here is the method: as §1, §2, §3

For test [5], the target named is T2, human 5-HT1B receptor. In words: Radioligand binding (saturation and competition), WT 5-HT1B. Conditions: Affinity (pKi ± SD) 5-HT1B, WT receptor; [^3H]5-CT competition; mean ± SD.
The target of another test is T4, human 5-HT1F receptor (Homo sapiens, UniProt P30939).
T4 construct: host or cells: HEK293T
T4 sequence (P30939 1-366): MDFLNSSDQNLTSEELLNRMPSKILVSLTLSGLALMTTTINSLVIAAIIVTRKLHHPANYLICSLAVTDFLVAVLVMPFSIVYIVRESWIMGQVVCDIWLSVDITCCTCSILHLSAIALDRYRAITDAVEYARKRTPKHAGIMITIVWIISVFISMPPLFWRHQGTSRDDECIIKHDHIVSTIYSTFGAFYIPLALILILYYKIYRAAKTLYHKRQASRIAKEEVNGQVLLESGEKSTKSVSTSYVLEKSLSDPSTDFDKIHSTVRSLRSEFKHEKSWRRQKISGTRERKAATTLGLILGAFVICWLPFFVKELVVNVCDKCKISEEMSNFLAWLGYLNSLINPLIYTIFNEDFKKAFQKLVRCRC
Description: Radioligand binding (saturation and competition), WT 5-HT1F.

Test [6] has as its target T1, human 5-HT1D receptor. In words: Radioligand binding (saturation and competition), WT 5-HT1D. Conditions: Affinity (pKi ± SD) 5-HT1D, WT receptor; [^3H]5-CT competition; mean ± SD.
The mark [7] stands for this setting: cAMP accumulation, HEKt cells, mean ± SD.

The results in this text go back to paper PMC10797628.

Bounds are passed on as bounds.

T1 sequence (P28221 whole entry): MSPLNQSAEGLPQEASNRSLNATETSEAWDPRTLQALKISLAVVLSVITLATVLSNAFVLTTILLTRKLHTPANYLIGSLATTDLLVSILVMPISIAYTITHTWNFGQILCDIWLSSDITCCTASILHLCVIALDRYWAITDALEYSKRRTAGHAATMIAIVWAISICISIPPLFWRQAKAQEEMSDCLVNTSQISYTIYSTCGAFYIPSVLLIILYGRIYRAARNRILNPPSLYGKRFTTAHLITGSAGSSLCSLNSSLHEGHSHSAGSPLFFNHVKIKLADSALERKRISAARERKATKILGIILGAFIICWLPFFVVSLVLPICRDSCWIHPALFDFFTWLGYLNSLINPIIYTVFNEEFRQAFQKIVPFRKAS
T2 sequence (P28222 whole entry): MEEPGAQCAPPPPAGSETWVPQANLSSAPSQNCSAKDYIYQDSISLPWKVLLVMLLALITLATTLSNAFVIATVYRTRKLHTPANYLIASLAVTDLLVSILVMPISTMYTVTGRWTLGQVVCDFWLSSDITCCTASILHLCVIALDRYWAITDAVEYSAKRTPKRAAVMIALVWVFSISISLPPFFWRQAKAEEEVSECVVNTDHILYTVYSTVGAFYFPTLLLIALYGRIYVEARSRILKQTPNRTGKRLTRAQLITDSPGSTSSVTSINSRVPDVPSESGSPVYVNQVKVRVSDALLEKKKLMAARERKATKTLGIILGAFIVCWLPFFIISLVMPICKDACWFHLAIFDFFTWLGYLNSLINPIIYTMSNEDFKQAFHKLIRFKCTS
Chain of S5.42A 5-HT1B receptor (P28222 whole entry S212A): as the sequence (P28222 whole entry) above, with S212A counted along it

`NCCc1c[nH]c2ccc(C(N)=O)cc12` [5-CT, 5-carboxamidotryptamine, reference compound]: the “5-HT1D EMAX (%)” value at human 5-HT1D receptor [1] stood at 101 ± 1%. Besides, at S5.42A 5-HT1B receptor, the “change in potency (qualitative)” value is on record as “significant reduction”. In addition, the “5-HT1B pEC50” value on human 5-HT1B receptor [2] (WT receptor, cAMP accumulation, HEKt cells, mean ± SD) stood at 8.46 ± 0.18. Further, on human 5-HT1B receptor [2] (WT receptor), the “5-HT1B EMAX (%)” value was found to be 100 ± 1%.

On to `CN(C)[C@H]1CCc2c(cccc2-c2ccccc2)C1` [(S)-5-PAT], for which the EC50 is 0.741 nM at human 5-HT1D receptor [1], 70.8 nM on human 5-HT1A receptor [4] and 14.5 nM on human 5-HT1B receptor [2] (setting [7]). Moreover, the Emax was over 90% at human 5-HT1D receptor [1], over 90% at human 5-HT1A receptor [4] and about 30% at human 5-HT1B receptor [2]. The “5-HT1D EMAX (%)” value at human 5-HT1D receptor [1] came out at 97 ± 2%. For the same compound, the “more potent at the 5-HT1D receptor compared to 5-HT1A and 5-HT1B receptors” value at human 5-HT1D receptor [1] (cAMP potency ratio) was “over 10 fold”. Also, the “Affinity (pKi ± SD) 5-HT1A” value on human 5-HT1A receptor [3] is 8.20 ± 0.04. For the same compound, the “5-HT1A EMAX (%)” value on human 5-HT1A receptor [4] came to 100 ± 2%. In addition, the Ki at human 5-HT1B receptor [5] is 10.2 nM; on human 5-HT1F receptor, 6760 nM; on human 5-HT1D receptor [6] it was 0.661 nM. At human 5-HT1B receptor [2] (WT receptor), the “5-HT1B EMAX (%)” value is on record as 28 ± 3%.

In the case of `CN(C)[C@H]1CCc2c(cccc2-c2ccccc2Cl)C1` [(S)-CPT], the EC50 was 2.24 nM on human 5-HT1D receptor [1], 43.7 nM at human 5-HT1A receptor [4] and 0.347 nM on human 5-HT1B receptor [2] (setting [7]). The Emax is 101 ± 1% on human 5-HT1D receptor [1], 91 ± 2% at human 5-HT1A receptor [4] and over 90% on human 5-HT1B receptor [2]. The Ki at human 5-HT1A receptor [3] is 5.75 nM; at human 5-HT1B receptor [5], 0.891 nM; at human 5-HT1F receptor it was over 10000 nM; on human 5-HT1D receptor [6], 0.447 nM. Further, at human 5-HT1B receptor [2] (WT receptor), the “5-HT1B EMAX (%)” value was found to be 100 ± 1%.

Turning to `CCCN(CCC)[C@H]1CCc2c(cccc2-c2ccccc2Cl)C1` [(S)-DCPT], the EC50 at human 5-HT1D receptor [1] was 2.4 nM; on human 5-HT1A receptor [4], 26.3 nM; on human 5-HT1B receptor [2] (setting [7]), 0.288 nM. For the same compound, the Emax at human 5-HT1D receptor [1] is 101 ± 2%; on human 5-HT1A receptor [4], 92 ± 4%; on human 5-HT1B receptor [2], over 90%. The Ki on human 5-HT1A receptor [3] was 1.41 nM; at human 5-HT1B receptor [5] it was 0.398 nM; at human 5-HT1F receptor, 7590 nM; on human 5-HT1D receptor [6], 0.562 nM. Moreover, on human 5-HT1B receptor [2] (WT receptor), the “5-HT1B EMAX (%)” value amounted to 103 ± 2%.

Regarding `CCCN(CCC)[C@H]1CCc2c(cccc2-c2ccccc2F)C1` [(S)-DFPT], the EC50 on human 5-HT1D receptor [1] is 1.17 nM; on human 5-HT1A receptor [4] it was 12.6 nM; at human 5-HT1B receptor [2] (setting [7]), 1.23 nM. The figures for the maximal response (Emax) at human 5-HT1D receptor [1], at human 5-HT1A receptor [4] and at human 5-HT1B receptor [2] were 99 ± 2%, 100 ± 2% and over 90%, respectively. For the same compound, the Ki at human 5-HT1A receptor [3] is 1.45 nM; on human 5-HT1B receptor [5] it was 2 nM; at human 5-HT1F receptor it was 8510 nM; at human 5-HT1D receptor [6], 0.155 nM. For the same compound, the “5-HT1B EMAX (%)” value on human 5-HT1B receptor [2] (WT receptor) was 100 ± 2%.

On to `CN(C)[C@H]1CCc2c(cccc2-c2ccco2)C1` [(S)-FAT], for which the concentration for a half-maximal effect (EC50) was 12 nM at human 5-HT1D receptor [1], 490 nM at human 5-HT1A receptor [4] and 117 nM at human 5-HT1B receptor [2] (setting [7]). Also, the Emax at human 5-HT1D receptor [1] came to 100 ± 2%; at human 5-HT1A receptor [4], 92 ± 4%; on human 5-HT1B receptor [2], 102 ± 3%. Besides, the “Affinity (pKi ± SD) 5-HT1A” value on human 5-HT1A receptor [3] amounted to 7.48 ± 0.06. Also, the Ki is 132 nM on human 5-HT1B receptor [5], 9330 nM on human 5-HT1F receptor and 11.7 nM at human 5-HT1D receptor [6].

For `CN(C)[C@H]1CCc2c(cccc2-c2cccn2C)C1` [(S)-NMP], the EC50 at human 5-HT1D receptor [1] was 8.32 nM; at human 5-HT1A receptor [4], 27.5 nM; at human 5-HT1B receptor [2] (setting [7]) it was 11.2 nM. The Emax on human 5-HT1D receptor [1] and on human 5-HT1A receptor [4] was under 85% in each case. For the same compound, the “5-HT1D EMAX (%)” value at human 5-HT1D receptor [1] was found to be 66 ± 6%. Also, the Ki is 20.4 nM on human 5-HT1A receptor [3], 5.75 nM on human 5-HT1B receptor [5], over 10000 nM on human 5-HT1F receptor and 3.98 nM on human 5-HT1D receptor [6]. In addition, the “5-HT1A EMAX (%)” value at human 5-HT1A receptor [4] stood at 70 ± 5%. For the same compound, the “5-HT1B EMAX (%)” value at human 5-HT1B receptor [2] (WT receptor) was 54 ± 5%.

In the case of `CN(C)[C@H]1CCc2c(cccc2-c2cccs2)C1` [(S)-TAT], the half-maximal effective concentration (EC50) on human 5-HT1D receptor [1] was 41.7 nM; at human 5-HT1A receptor [4], 23.4 nM; at human 5-HT1B receptor [2] (setting [7]), 15.8 nM. Also, the maximal response (Emax) on human 5-HT1D receptor [1] came to 60 ± 3%; at human 5-HT1A receptor [4], 91 ± 3%; on human 5-HT1B receptor [2] it was 85 ± 4%. Besides, the Ki at human 5-HT1A receptor [3] is 6.17 nM; at human 5-HT1B receptor [5], 6.31 nM; on human 5-HT1F receptor, over 10000 nM; at human 5-HT1D receptor [6], 1.7 nM.

As a reminder, the EC50 is the concentration at which the effect is half-maximal. A lower EC50 goes with an effect from little substance. As a reminder, the Emax is the greatest response seen or fitted, relative to the assay's reference. As usually defined, the Ki is a dissociation constant, usually derived from enzyme kinetics or from competition with a known ligand.
